Entries after “also recorded” stand apart in the source; their conditions may differ. Read-outs that look alike come from different tables or passages of the source.
Tests used:
[1] = system: IL-10(tm/tm) mouse aorta; assay: Force-tension myography, ACH dependent vasorelaxation of phenylephrine pre-constricted IL-10(tm/tm) aortic rings; format: cell-based; details: for Effect on endothelial dependent vasorelaxation / Effect on vasoconstrictive responses to ACH: old IL-10(tm/tm) aortas; for EC50 / Emax: Mus musculus
Source text: (§1) Animals: Age-matched IL-10 deficient (IL-10(tm/tm)); B6.129P2IL10tm1Cgn/J and control mice (C576L6; WT) were obtained from Jackson Laboratories (Bar Harbor, Me., USA). IL-10(tm/tm) mice used are homozygous for the IL10tm1Cgn targeted mutation. These mice were housed in Association for Assessment and Accreditation of Laboratory Animal Care International accredited facilities and pathogen contact prevention (prophylaxis from infections, inflammatory bowel disease and early mortality) was achieved under specific pathogen-free (SPF) barrier conditions until terminal experiments were carried out. It is known that the pro-inflammatory potential achieved by the lack of IL-10 in this mouse model can be attributed to activation of TNF-α and IL-1β synthesis via IFN-γ, which is produced in massive amounts and also is important inantigen presentation and pathogen death via activation of macrophages. Animals with any signs of inflammatory/infectious disease were ruled out of the study. The study was performed at approximately 3-4 months (young) and 9 months of age or greater (old).
(§2) Vascular endothelial function was assessed using force-tension myography. Mouse aortas were isolated and cleaned in ice-cold Krebs-Ringer-bicarbonate solution containing the following (in mM): 118.3 NaCI, 4.7 KCI, 1.6 CaCl2, 1.2 KH2 PO4, 25 NaHCO3, 1.2 MgSO4, and 11.1 dextrose. Vascular tension changes were determined as previously described (J Appl Physiol, 2000. 89(6): p. 2382-90). Briefly, one end of the aortic rings was connected to a transducer, and the other to a micromanipulator. The aorta was immersed in a bath filled with constantly oxygenated Krebs buffer at 37° C. Equal size thoracic aortic rings (2 mm) were mounted using a microscope, ensuring no damage to the smooth muscle or endothelium. The aortas were passively stretched to an optimal resting tension using the micromanipulator, after which a dose of 60 mM KCI was administered, and repeated after a wash with Krebs buffer. After these washes, the vessels were allowed to equilibrate for 20-30 min. Phenylephrine (1 μM) was administered to induce vasoconstriction. A dose-dependent response (1 nM to 10 μM), with the muscarinic agonist, ACH, was then performed. The responses were repeated in the presence of inhibitors. Relaxation responses were calculated as a percentage of tension following pre-constriction. Sigmoidal dose-response curves were fitted to data with the minimum constrained to 0.
(§3) Vascular Studies. In ex vivo myograph experiments, measured tension represents a balance between vasorelaxant and vasoconstrictor dependent function and mediators. In phenylephrine pre-constricted isolated mouse aorta, ACH stimulates the release of endothelial factors, which mediate vasorelaxation as a result of greater relaxation than constriction.

[2] = system: WT mouse aorta; assay: Force-tension myography, ACH dependent vasorelaxation of phenylephrine pre-constricted WT aortic rings; format: cell-based
Source text: as §1, §2, §3

[3] = pre-incubation with 5 μM nimesulide
[4] = pre-incubation with 100 nM SQ29548
[5] = pre-incubation with 3 μM indomethacin

CS(=O)(=O)Nc1ccc([N+](=O)[O-])cc1Oc1ccccc1 [nimesulide]
Effect on endothelial dependent vasorelaxation [1, 3]: enhanced endothelial dependent vasorelaxation; also recorded: significantly improved endothelial dependent vasorelaxation | Effect on vasoconstrictive responses to ACH [1, 3]: abolished the vasoconstrictive responses

CC(=O)OCC[N+](C)(C)C [ACH, Acetylcholine]
EC50 ([2]; old WT mice aortas, n=6, read-out: EC50 of ACH mediated vasorelaxation): 251 nM | Emax ([2]; old WT mice aortas, n=6, read-out: Emax of ACH mediated vasorelaxation): 98.5 ± 14.1% | EC50 ([2]; young WT mice aortas, phenylephrine pre-constricted, read-out: EC50 of ACH dose response (vasorelaxation)): 126 nM | Emax ([2]; young WT mice aortas, phenylephrine pre-constricted, read-out: Emax of ACH dose response (vasorelaxation)): 80.9 ± 4.6% | EC50 ([1]; old IL-10(tm/tm) mice aortas, n=6, read-out: EC50 of ACH mediated vasorelaxation): 39.4 nM | Emax ([1]; old IL-10(tm/tm) mice aortas, n=6, read-out: Emax of ACH mediated vasorelaxation): 30.7 ± 9.3% | EC50 ([1]; young IL-10(tm/tm) mice aortas, phenylephrine pre-constricted, read-out: EC50 of ACH dose response (vasorelaxation)): 50.1 nM | Emax ([1]; young IL-10(tm/tm) mice aortas, phenylephrine pre-constricted, read-out: Emax of ACH dose response (vasorelaxation)): 71.9 ± 5.7%

O=C(O)CCC/C=C\C[C@@H]1[C@H](CNNC(=O)Nc2ccccc2)[C@H]2CC[C@@H]1O2 [SQ29548]
Effect on endothelial dependent vasorelaxation [1, 4]: enhanced endothelial dependent vasorelaxation; also recorded: significantly improved endothelial dependent vasorelaxation | Effect on vasoconstrictive responses to ACH [1, 4]: abolished the vasoconstrictive responses

COc1ccc2c(c1)c(CC(=O)O)c(C)n2C(=O)c1ccc(Cl)cc1 [indomethacin]
Effect on endothelial dependent vasorelaxation [1, 5]: significantly improved endothelial dependent vasorelaxation | Effect on vasoconstrictive responses to ACH [1, 5]: abolished the vasoconstrictive responses

— patent US20130121961A1, “TREATMENT MODALITIES TO PREVENT OR TREAT LOSS OF CARDIOVASCULAR FUNCTION IN AGING HUMANS” (THE JOHNS HOPKINS UNIVERSITY, priority 2011, published 2013)
